Measured values as given in ChEMBL document CHEMBL1201862, “PubChem BioAssay data set” (2004).
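Interpolation was linear, between the two tested concentrations surrounding the appropriate level; five concentrations were tested over 48 hours in 96-well plates. GI50 marks 50% less growth.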 The source made the active and inactive calls. Rule as the data show it: active = GI50 up to about 1.1 µM and inactive = higher.

Columns and labels:
Test in all cases: NCI tumour cell line growth inhibition, 48 h
HOP-62 = test system: HOP-62
COLO 205 = test system: COLO 205
OVCAR-8 = test system: OVCAR-8
HL-60 = test system: HL-60
SK-MEL-2 = test system: SK-MEL-2
SF-268 = test system: SF-268
HCT-116 = test system: HCT-116
SK-OV-3 = test system: SK-OV-3
U-251 = test system: U-251
CAKI-1 = test system: CAKI-1
NCI-H522 = test system: NCI-H522
HCC 2998 = test system: HCC 2998
HT-29 = test system: HT-29
NCI-H226 = test system: NCI-H226
OVCAR-5 = test system: OVCAR-5
ACHN = test system: ACHN
UO-31 = test system: UO-31
SNB-19 = test system: SNB-19
OVCAR-3 = test system: OVCAR-3
Malme-3M = test system: Malme-3M

Row | SMILES | GI50 (HOP-62) | GI50 (COLO 205) | GI50 (OVCAR-8) | GI50 (HL-60) | GI50 (SK-MEL-2) | GI50 (SF-268) | GI50 (HCT-116) | GI50 (SK-OV-3) | GI50 (U-251) | GI50 (CAKI-1) | GI50 (NCI-H522) | GI50 (HCC 2998) | GI50 (HT-29) | GI50 (NCI-H226) | GI50 (OVCAR-5) | GI50 (ACHN) | GI50 (UO-31) | GI50 (SNB-19) | GI50 (OVCAR-3) | GI50 (Malme-3M)
1 | O=C(CCc1ccc(O)c(O)c1)OCCc1ccccc1 | > 31.6 µM (inactive) | 42.7 µM (inactive) | 23.1 µM (inactive) | 3.85 µM (inactive) | > 100 µM (inactive) | > 100 µM (inactive) | 44.6 µM (inactive) | > 100 µM (inactive) | > 100 µM (inactive) | 78.3 µM (inactive) | 3.7 µM (inactive) | > 100 µM (inactive) | > 100 µM (inactive) | > 100 µM (inactive) | > 100 µM (inactive) | 59.7 µM (inactive) | > 80.9 µM (inactive) | > 100 µM (inactive) | 29.6 µM (inactive) | > 88.9 µM (inactive)
2 | O=C1CSC(c2ccc(Cl)cc2Cl)N1c1ccc(Oc2ccc(Cl)cc2)c(Cl)c1 (stereo unspecified) | 23.8 µM (inactive) | 25.5 µM (inactive) | 29.9 µM (inactive) | 16.4 µM (inactive) | 22.4 µM (inactive) | 16 µM (inactive) | 16.9 µM (inactive) | 30.7 µM (inactive) | 31.8 µM (inactive) | 22.4 µM (inactive) | 10.4 µM (inactive) | 31 µM (inactive) | 16.4 µM (inactive) | 22.1 µM (inactive) | 33.3 µM (inactive) | 35.7 µM (inactive) | 7.08 µM (inactive) | 23.6 µM (inactive) | 17.5 µM (inactive) | 16.9 µM (inactive)
3 | CNNC(=NS(=O)(=O)c1cc(C#N)c(NNC)cc1S)NNC | > 10 µM (inactive) | > 10 µM (inactive) | > 10 µM (inactive) | > 10 µM (inactive) | > 10 µM (inactive) | > 10 µM (inactive) | > 10 µM (inactive) | > 10 µM (inactive) | > 10 µM (inactive) | > 10 µM (inactive) | > 10 µM (inactive) | > 10 µM (inactive) | > 10 µM (inactive) | > 10 µM (inactive) | > 10 µM (inactive) | > 10 µM (inactive) | > 10 µM (inactive) | > 10 µM (inactive) | > 10 µM (inactive) | > 10 µM (inactive)
4 | N#CN=C(N(Cc1ccccc1)Cc1ccccc1)N(Cc1ccccc1)Cc1ccccc1 | > 100 µM (inactive) | 11.7 µM (inactive) | 6.7 µM (inactive) | 5.14 µM (inactive) | 12 µM (inactive) | > 100 µM (inactive) | 3.51 µM (inactive) | 21.8 µM (inactive) | – | 11.6 µM (inactive) | 4.69 µM (inactive) | 47 µM (inactive) | 6.22 µM (inactive) | 32.5 µM (inactive) | 45.2 µM (inactive) | 4.53 µM (inactive) | 5.64 µM (inactive) | 28.7 µM (inactive) | 10.9 µM (inactive) | 36.7 µM (inactive)
5 | CN(COC(=O)C(C)(C)C)c1nc(N(C)COC(=O)C(C)(C)C)nc(N(C)COC(=O)C(C)(C)C)n1 | > 100 µM (inactive) | 16 µM (inactive) | > 10 µM (inactive) | 29.2 µM (inactive) | 61.1 µM (inactive) | 34.8 µM (inactive) | 18.8 µM (inactive) | > 100 µM (inactive) | – | 36.7 µM (inactive) | 77.1 µM (inactive) | 34.3 µM (inactive) | 34 µM (inactive) | > 100 µM (inactive) | > 100 µM (inactive) | 32.3 µM (inactive) | > 100 µM (inactive) | > 100 µM (inactive) | > 100 µM (inactive) | 12.7 µM (inactive)
6 | O=[N+]([O-])/C=C/c1cn(CCCCCCCCn2cc(/C=C/[N+](=O)[O-])c3ccccc32)c2ccccc12 | > 10 µM (inactive) | > 10 µM (inactive) | > 10 µM (inactive) | > 10 µM (inactive) | > 10 µM (inactive) | > 10 µM (inactive) | 0.211 µM (active) | > 10 µM (inactive) | – | 0.689 µM (active) | > 10 µM (inactive) | 7.59 µM (inactive) | > 10 µM (inactive) | > 10 µM (inactive) | > 10 µM (inactive) | > 10 µM (inactive) | > 10 µM (inactive) | > 10 µM (inactive) | > 10 µM (inactive) | > 10 µM (inactive)
7 | Cc1ccc(-c2nnc3s/c(=C\c4ccc(N(C)C)cc4)c(=O)n23)cc1 | > 100 µM (inactive) | > 100 µM (inactive) | > 100 µM (inactive) | > 100 µM (inactive) | > 100 µM (inactive) | > 100 µM (inactive) | > 100 µM (inactive) | > 100 µM (inactive) | > 100 µM (inactive) | > 100 µM (inactive) | > 100 µM (inactive) | > 100 µM (inactive) | – | > 100 µM (inactive) | > 100 µM (inactive) | > 100 µM (inactive) | > 100 µM (inactive) | > 100 µM (inactive) | > 100 µM (inactive) | > 100 µM (inactive)
